Test results taken from patent publication US9365551B2, “2-(benzyloxy) benzamides as LRRK2 kinase inhibitors” (Glaxo Group Limited, priority 2010, dated 2016).

Legend:
[1] = target: T1, 6His-Tev-LRRK2 (1326-2527) (Homo sapiens, UniProt Q5S007); experiment: LRRK2 peptide substrate assay; assay type: biochemical; settings: mean pIC50 of multiple test results
T1 construct: A LRRK2 cDNA encoding residues 1326-2527 was received from Dundee University; made in house; host or cells: Spodoptera frugiperda (Sf9) insect cells, baculovirus (pFB-HTb)
T1 sequence (Q5S007 1326-2527): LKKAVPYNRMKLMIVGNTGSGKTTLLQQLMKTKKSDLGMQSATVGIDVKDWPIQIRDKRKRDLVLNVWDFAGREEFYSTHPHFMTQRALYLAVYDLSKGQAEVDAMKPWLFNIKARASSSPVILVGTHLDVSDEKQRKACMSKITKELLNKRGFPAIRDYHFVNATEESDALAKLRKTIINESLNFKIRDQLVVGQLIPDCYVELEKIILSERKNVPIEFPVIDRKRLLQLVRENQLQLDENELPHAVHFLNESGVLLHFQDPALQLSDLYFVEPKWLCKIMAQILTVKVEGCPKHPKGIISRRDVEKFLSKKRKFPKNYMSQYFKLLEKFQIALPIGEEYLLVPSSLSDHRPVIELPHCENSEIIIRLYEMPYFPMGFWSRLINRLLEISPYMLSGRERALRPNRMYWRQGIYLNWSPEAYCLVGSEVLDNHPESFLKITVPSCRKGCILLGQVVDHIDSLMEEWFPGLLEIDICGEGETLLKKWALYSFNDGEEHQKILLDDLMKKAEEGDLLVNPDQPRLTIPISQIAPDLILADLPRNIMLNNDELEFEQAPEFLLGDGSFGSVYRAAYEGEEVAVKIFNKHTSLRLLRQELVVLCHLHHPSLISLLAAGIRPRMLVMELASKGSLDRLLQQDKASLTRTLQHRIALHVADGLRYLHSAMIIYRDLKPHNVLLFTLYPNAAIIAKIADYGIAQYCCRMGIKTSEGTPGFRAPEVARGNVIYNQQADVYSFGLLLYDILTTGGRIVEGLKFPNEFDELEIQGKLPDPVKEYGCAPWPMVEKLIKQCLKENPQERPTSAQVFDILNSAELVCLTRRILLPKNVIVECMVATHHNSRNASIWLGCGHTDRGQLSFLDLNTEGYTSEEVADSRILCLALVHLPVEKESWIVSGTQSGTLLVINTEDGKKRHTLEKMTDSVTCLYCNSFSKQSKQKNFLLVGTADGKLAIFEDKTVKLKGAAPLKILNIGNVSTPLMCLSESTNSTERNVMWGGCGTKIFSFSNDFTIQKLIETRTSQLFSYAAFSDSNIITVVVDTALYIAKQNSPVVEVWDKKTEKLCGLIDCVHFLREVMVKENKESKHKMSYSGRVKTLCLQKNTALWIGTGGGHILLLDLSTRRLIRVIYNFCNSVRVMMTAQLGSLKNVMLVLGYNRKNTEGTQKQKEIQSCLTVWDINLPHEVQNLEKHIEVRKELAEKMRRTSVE
Procedure: (§1) Compounds of formula (I) may be tested for in vitro kinase activity in accordance with the following assays, using the non natural, in vitro, substrates moesin and the Longer Biotin-LRRKtide. Moesin and a shorter version of the peptide were identified as substrates in Jaleel et al. (2007, Biochem J, 405: 307-317).
LRRK2 Peptide Substrate Assay
a) 100 nl of a 1:4 serial dilution of test compound with a top final assay concentration of 30 μM is added to certain wells in a low volume 384 well black plate. 100 nl of DMSO is used in certain wells as controls.
(§2) b) 3 μl enzyme solution (80 nM purified recombinant 6His-Tev-LRRK2 (1326-2527) in assay buffer: 50 mM Hepes (pH 7.2), 10 mM MgCl2, 150 mM NaCl, 5% glycerol, 0.0025% triton X-100 and 1 mM DTT) is added to certain wells. 3 μl assay buffer is added to certain wells as a 100% inhibition (no enzyme) control. c) After incubation at room temperature for 30 minutes, 3 μl substrate solution (2 μM Biotin-LRRKtide peptide substrate and ATP at Km in assay buffer) is added to each well. Plates are then incubated for a further 1-2 hours at room temperature (incubation time varies depending upon rate and linearity of reaction with differing enzyme batches). d) 6 μl detection solution (50 nM Streptavidin SureLight® APC (PerkinElmer), 4 nM Eu-W1024 labelled anti-rabbit IgG antibody (PerkinElmer), 1:500 dilution (dilution determined on a batch to batch basis) of Phospho-Ezrin (Thr567)/Radixin (Thr564)/Moesin (Thr558) Polyclonal Antibody (New England Biolabs) and 60 mM EDTA in buffer: 40 mM Hepes (pH 7.2), 150 mM NaCl, 0.03% BSA) is added to each well. Plates are then incubated for a further 2 hours at room temperature before reading on a suitable plate reader (Excitation 330 nm, emission 620 nm (Eu) and 665 nm (APC)). Data is analysed using ActivityBase software (IDBS). LRRK2 AlphaScreen Desensitised Protein Substrate Assay a) 100 nl of a 1:4 serial dilution of test compound with a top final assay concentration of 30 μM is added to certain wells in a low volume 384 well black plate. 100 nl of DMSO is used in certain wells as controls. b) 3 μl enzyme solution (80 nM purified recombinant 6His-Tev-LRRK2 (1326-2527) in assay buffer: 50 mM Hepes (pH 7.2), 10 mM MgCl2, 150 mM NaCl, 5% glycerol, 0.0025% triton X-100 and 1 mM DTT) is added to certain wells. 3 μl assay buffer is added to certain wells as a 100% inhibition (no enzyme) control. c) After incubation at room temperature for 30 minutes, 3 μl substrate solution (200 nM GST-PS-Moesin (400-577) and 2 mM ATP in assay buffer) is added to each well. Plates are then incubated for 20 minutes at room temperature. d) 6 μl detection solution (1:250 dilution of AlphaLisa Protein A Acceptor beads (PerkinElmer), 1:64 dilution of AlphaLisa Gluthathione Donor beads (PerkinElmer) and 1:600 dilution (dilution determined on a batch to batch basis) of Phospho-Ezrin (Thr567)/Radixin (Thr564)/Moesin (Thr558) Polyclonal Antibody (New England Biolabs) in a buffer: 50 mM Hepes (pH 7.5), 250 mM NaCl, 60 mM EDTA, 1% PEG and 0.01% Brij 35) is added to each well. Plates are then incubated for a further 2 hours at room temperature in the dark before reading on an EnVision™ plate reader with AlphaScreen HTS turbo option module and AlphaScreen settings. Data is analysed using ActivityBase software (IDBS). Pharmacological Data

[2] = target: T1, 6His-Tev-LRRK2 (1326-2527); experiment: LRRK2 AlphaScreen desensitised protein substrate assay; assay type: biochemical; settings: mean pIC50 of multiple test results
Procedure: as §1, §2

[3] = Biotin-LRRKtide peptide substrate, ATP at Km, read-out: LRRK2 peptide substrate assay (pIC50) (converted)
[4] = stated as threshold, read-out: pIC50 in the LRRK2 peptide substrate assay (bounds) (converted)
[5] = GST-PS-Moesin (400-577) substrate, 2 mM ATP, read-out: LRRK2 alphascreen desensitized protein substrate assay (pIC50) (converted)
[6] = stated as threshold, read-out: pIC50 in the LRRK2 alphascreen desensitised protein substrate assay (bounds) (converted)

SMILES | IC50 [1, 3] [µM] | IC50 [1, 4] [µM] | IC50 [2, 5] [µM] | IC50 [2, 6] [µM]
O=C(Nc1cccnc1)c1cc(C(F)(F)F)c(C(=O)N2CCOCC2)cc1OCc1ccccc1 [Example 37, 4-(4-Morpholinylcarbonyl)-2-[(phenylmethyl)oxy]-N-3-pyridinyl-5-(trifluoromethyl)benzamide] | 0.0398 | ≤ 0.1 | 0.794 | ≤ 25.1
O=C(Nc1ccnnc1)c1cc(C(F)(F)F)c(C(=O)N2CCOCC2)cc1OCc1ccccc1 [Example 38, 4-(4-Morpholinylcarbonyl)-2-[(phenylmethyl)oxy]-N-4-pyridazinyl-5-(trifluoromethyl)benzamide] |  | ≤ 1.26 |  | ≤ 25.1
O=C(Nc1cccnc1)c1cc(C(F)(F)F)c(C(=O)N2CCCCC2)cc1OCc1ccccc1 [Example 39, 2-[(Phenylmethyl)oxy]-4-(1-piperidinylcarbonyl)-N-3-pyridinyl-5-(trifluoromethyl)benzamide] | 0.0158 | ≤ 0.1 | 0.316 | ≤ 0.316
O=C(Nc1ccnnc1)c1cc(C(F)(F)F)c(C(=O)N2CCCCC2)cc1OCc1ccccc1 [Example 40, 2-[(Phenylmethyl)oxy]-4-(1-piperidinylcarbonyl)-N-4-pyridazinyl-5-(trifluoromethyl)benzamide] |  | ≤ 1.26 |  | ≤ 25.1
O=C(Nc1cccnc1)c1cc(Cl)c(C(=O)N2CCC(F)(F)C2)cc1OCc1ccccc1 [Example 41, 5-Chloro-4-[(3,3-difluoro-1-pyrrolidinyl)carbonyl]-2-[(phenylmethyl)oxy]-N-3-pyridinylbenzamide] |  | ≤ 0.1 |  | ≤ 0.316
O=C(Nc1ccnnc1)c1cc(Cl)c(C(=O)N2CCC(F)(F)C2)cc1OCc1ccccc1 [Example 42, 5-Chloro-4-[(3,3-difluoro-1-pyrrolidinyl)carbonyl]-2-[(phenylmethyl)oxy]-N-4-pyridazinylbenzamide] | 0.0501 | ≤ 0.1 | 0.501 | ≤ 25.1
Cc1nocc1NC(=O)c1cc(Cl)c(C(=O)N2CCC(F)(F)C2)cc1OCc1ccccc1 [Example 43, 5-Chloro-4-[(3,3-difluoro-1-pyrrolidinyl)carbonyl]-N-(3-methyl-4-isoxazolyl)-2-[(phenylmethyl)oxy]benzamide] |  | ≤ 0.1 |  | ≤ 25.1
O=C(Nc1cccnc1)c1cc(Cl)c(C(=O)N2CCOCC2)cc1OCc1ccccc1 [Example 44, 5-Chloro-4-(4-morpholinylcarbonyl)-2-[(phenylmethyl)oxy]-N-3-pyridinylbenzamide] | 0.0316 | ≤ 0.1 | 0.158 | ≤ 0.316
O=C(Nc1cccc(Cl)c1)c1cc(Cl)c(C(=O)N2CCOCC2)cc1OCc1ccccc1 [Example 45, 5-Chloro-N-(3-chlorophenyl)-4-(4-morpholinylcarbonyl)-2-[(phenylmethyl)oxy]benzamide] |  | ≤ 0.01 |  | ≤ 0.316
O=C(Nc1ccnnc1)c1cc(Cl)c(C(=O)N2CCOCC2)cc1OCc1ccccc1 [Example 46, 5-Chloro-4-(4-morpholinylcarbonyl)-2-[(phenylmethyl)oxy]-N-4-pyridazinylbenzamide] |  | ≤ 0.1 |  | ≤ 25.1
Cn1cc(-c2cc(C(=O)Nc3cccc(F)c3)c(OCc3ccc(F)cc3)cc2C(=O)N2CCOCC2)cn1 [Example 47, 2-((4-fluorobenzyl)oxy)-N-(3-fluorophenyl)-5-(1-methyl-1H-pyrazol-4-yl)-4-(morpholine-4-carbonyl)benzamide] | 0.01 | ≤ 0.01 | 0.126 | ≤ 0.316
Cn1cc(-c2cc(C(=O)Nc3cccc(Cl)c3)c(OCc3ccc(F)cc3)cc2C(=O)N2CCOCC2)cn1 [Example 48, N-(3-chlorophenyl)-2-((4-fluorobenzyl)oxy)-5-(1-methyl-1H-pyrazol-4-yl)-4-(morpholine-4-carbonyl)benzamide] | 0.00631 | ≤ 0.01 | 0.0158 | ≤ 0.316
Cn1cc(-c2cc(C(=O)Nc3cccc(Cl)c3)c(OCc3ccccc3)cc2CN2CCOCC2)cn1 [Example 49, 2-(benzyloxy)-N-(3-chlorophenyl)-5-(1-methyl-1H-pyrazol-4-yl)-4-(morpholinomethyl)benzamide] |  | ≤ 0.1 |  | > 25.1
O=C(Nc1cccc(Cl)c1)c1cc(C(F)(F)F)c(CN2CCOCC2)cc1OCc1ccccc1 [Example 52, 2-(Benzyloxy)-N-(3-chlorophenyl)-4-(morpholinomethyl)-5-(trifluoromethyl)benzamide] |  | ≤ 1.26 |  | > 25.1
O=C(Nc1cccc(F)c1)c1cc(C(F)(F)F)c(CN2CCOCC2)cc1OCc1ccccc1 [Example 53, 2-(Benzyloxy)-N-(3-fluorophenyl)-4-(morpholinomethyl)-5-(trifluoromethyl)benzamide] |  | ≤ 0.01 |  | > 25.1
CN1CCN(C(=O)c2cc(OCc3ccccc3)c(C(=O)Nc3ccnnc3)cc2Cl)CC1 [Example 55, 2-(benzyloxy)-5-chloro-4-(4-methylpiperazine-1-carbonyl)-N-(pyridazin-4-yl)benzamide] |  | ≤ 0.1 |  | ≤ 0.316
